Experimental data reported in US11566007B2, “Ras inhibitors” (Revolution Medicines, Inc., priority 2019, dated 2023).
pEC50, pIC50: −log10 of the molar value. Values joined by “and” are separate entries in the source; they are usually repeats but may differ in a detail not shown here. Equal values may be shown once. Read-outs that look alike come from different tables or passages of the source.

Legend:
K-Ras G13C = K-Ras G13C (Homo sapiens (Human), UniProt P01116+P62937, G13C); test: Ras-Raf (BRAF RBD) disruption / FRET / MOA assay, KRAS G13C; format: biochemical; settings: KRAS G13C; Ras-Raf disruption/FRET/MOA assay; read-out: IC50* KRAS G13C FRET data
Protocol: (§1) The purpose of this biochemical assay is to measure the ability of test compounds to facilitate ternary complex formation between a nucleotide-loaded Ras isoform and cyclophilin A; the resulting ternary complex disrupts binding to a BRAF^RBD construct, inhibiting Ras signaling through a RAF effector.
(§2) Compound is present in plate wells as a 10-point 3-fold dilution series starting at a final concentration of 30 μM. After incubation at 25° C. for 3 hours, a mixture of Anti-His Eu-W1024 and anti-GST allophycocyanin is then added to assay sample wells at final concentrations of 10 nM and 50 nM, respectively, and the reaction incubated for an additional 1.5 hours. […] Compounds that facilitate disruption of a Ras:RAF complex are identified as those eliciting a decrease in the TR-FRET ratio relative to DMSO control wells.
(§3) This protocol may also be executed substituting other Ras proteins or nucleotides.
(§4) The purpose of this biochemical assay was to measure the ability of test compounds to facilitate ternary complex formation between a nucleotide-loaded K-Ras isoform and Cyclophilin A; the resulting ternary complex disrupts binding to a BRAF^RBD construct, inhibiting K-Ras signaling through a RAF effector. Data is reported as IC50 values.
as §2, with “Compound was” for “Compound is”, “allophycocyanin was” for “allophycocyanin is”, “a K-Ras:RAF” for “a Ras:RAF”, “complex were” for “complex are”

KRAS G12V = KRAS G12V (Homo sapiens (Human), UniProt P01116+P62937, G12V); test: Ras-Raf (BRAF RBD) disruption / FRET / MOA assay, KRAS G12V; format: biochemical; settings: read-out: IC50* KRAS G12V FRET data
Protocol: as §1, §2, §3, §4
as §2, with “Compound was” for “Compound is”, “allophycocyanin was” for “allophycocyanin is”, “a K-Ras:RAF” for “a Ras:RAF”, “complex were” for “complex are”

KRAS WT = KRAS WT (Homo sapiens (Human), UniProt P01116+P62937); test: Ras-Raf (BRAF RBD) disruption / FRET / MOA assay, KRAS WT; format: biochemical; settings: read-out: IC50* KRAS WT FRET data
Protocol: as §1, §2, §3, §4
as §2, with “Compound was” for “Compound is”, “allophycocyanin was” for “allophycocyanin is”, “a K-Ras:RAF” for “a Ras:RAF”, “complex were” for “complex are”

KRAS G12D = KRAS G12D (Homo sapiens (Human), UniProt P01116+P62937, G12D); test: Ras-Raf (BRAF RBD) disruption / FRET / MOA assay, KRAS G12D; format: biochemical; settings: Ras-Raf disruption/FRET/MOA assay; class symbols; read-out: KRAS G12D FRET data IC50
Outline: (§5)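 TR-FRET read-out: a drop in ratio relative to DMSO wells marks disruption of the Ras:RAF complex, reported as IC50. Compounds (3-fold series, 10 points, top 30 μM final) incubated 3 h at 25° C before Eu-anti-His 10 nM and APC-anti-GST 50 nM, 1.5 h more.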

KRAS G12S = KRAS G12S (Homo sapiens (Human), UniProt P01116+P62937, G12S); test: Ras-Raf (BRAF RBD) disruption / FRET / MOA assay, KRAS G12S; format: biochemical; settings: Ras-Raf disruption/FRET/MOA assay; class symbols; read-out: KRAS G12S FRET data IC50
Outline: as §5

[1] = test system: NCI-H358 cells (K-Ras G12C); test: Potency assay: pERK in NCI-H358 cells; format: cell-based, human; settings: H358 KRAS G12C, read-out: pERK EC50
Outline: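 pERK decrease read by AlphaLISA SureFire p-ERK1/2 or In-Cell Western after 4 h compound exposure at 37 °C, 5% CO2.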

K-Ras G12C = K-Ras G12C (Homo sapiens (Human), UniProt P01116+P62937, G12C); test: Ras-Raf (BRAF RBD) disruption / FRET / MOA assay, KRAS G12C; format: biochemical; settings: KRAS G12C; Ras-Raf disruption/FRET/MOA assay; read-out: IC50* KRAS G12C FRET data
Protocol: as §1, §2, §3, §4
as §2, with “Compound was” for “Compound is”, “allophycocyanin was” for “allophycocyanin is”, “a K-Ras:RAF” for “a Ras:RAF”, “complex were” for “complex are”

NCI-H358 (K-Ras G12C) = test: CellTiter-Glo cell viability assay, NCI-H358; format: cell-based, human; settings: NCI-H358, 5-day treatment, class symbols, read-out: Additional H358 Cell Viability assay data (K-Ras G12C, IC50)
Outline: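 Cells seeded, compound added directly, 5-day exposure. Plates to RT ~30 min, CellTiter-Glo luminescence read. Normalized to DMSO avg (x100); 4-parameter logistic fit.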

K-Ras G13C, sequence (P01116-2 other isoform, or with tags, fused parts or gaps G13C): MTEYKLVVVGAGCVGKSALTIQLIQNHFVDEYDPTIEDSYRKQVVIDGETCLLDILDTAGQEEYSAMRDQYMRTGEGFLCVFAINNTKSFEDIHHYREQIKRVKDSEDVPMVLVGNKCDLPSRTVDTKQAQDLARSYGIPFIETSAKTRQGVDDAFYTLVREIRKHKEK
K-Ras G13C, sequence (P62937 whole entry, canonical isoform): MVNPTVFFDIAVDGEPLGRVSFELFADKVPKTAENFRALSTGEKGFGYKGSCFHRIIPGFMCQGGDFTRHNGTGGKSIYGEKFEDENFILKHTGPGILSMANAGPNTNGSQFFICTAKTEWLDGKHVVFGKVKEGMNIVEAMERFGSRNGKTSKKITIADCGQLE
K-Ras G12C, sequence (P01116-2 other isoform, or with tags, fused parts or gaps G12C): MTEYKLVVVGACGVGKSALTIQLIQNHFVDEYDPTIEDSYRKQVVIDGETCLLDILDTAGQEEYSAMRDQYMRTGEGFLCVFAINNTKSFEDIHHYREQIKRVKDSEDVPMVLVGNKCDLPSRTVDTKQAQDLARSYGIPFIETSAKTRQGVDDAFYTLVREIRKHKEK
K-Ras G12C, sequence (P62937 whole entry): as the sequence (P62937 whole entry, canonical isoform) above
KRAS G12D, sequence (P01116-2 other isoform, or with tags, fused parts or gaps G12D): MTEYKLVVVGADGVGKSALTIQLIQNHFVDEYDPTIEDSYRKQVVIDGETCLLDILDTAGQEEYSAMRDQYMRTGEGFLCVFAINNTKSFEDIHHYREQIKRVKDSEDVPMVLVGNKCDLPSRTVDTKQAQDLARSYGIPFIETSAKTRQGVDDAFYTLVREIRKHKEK
KRAS G12D, sequence (P62937 whole entry): as the sequence (P62937 whole entry, canonical isoform) above
KRAS G12V, sequence (P01116-2 other isoform, or with tags, fused parts or gaps G12V): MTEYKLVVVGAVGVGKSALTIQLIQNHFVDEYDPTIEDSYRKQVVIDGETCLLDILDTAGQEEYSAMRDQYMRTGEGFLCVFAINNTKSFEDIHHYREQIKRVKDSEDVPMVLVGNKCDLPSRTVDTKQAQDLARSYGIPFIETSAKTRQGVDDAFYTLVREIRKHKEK
KRAS G12V, sequence (P62937 whole entry): as the sequence (P62937 whole entry, canonical isoform) above
KRAS WT, sequence (P01116-2 other isoform, or with tags, fused parts or gaps): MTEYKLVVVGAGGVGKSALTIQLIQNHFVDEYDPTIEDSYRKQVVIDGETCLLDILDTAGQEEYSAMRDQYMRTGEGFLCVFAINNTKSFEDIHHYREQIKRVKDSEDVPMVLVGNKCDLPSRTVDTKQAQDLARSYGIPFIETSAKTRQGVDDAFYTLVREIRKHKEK
KRAS WT, sequence (P62937 whole entry): as the sequence (P62937 whole entry, canonical isoform) above
KRAS G12S, sequence (P01116-2 other isoform, or with tags, fused parts or gaps G12S): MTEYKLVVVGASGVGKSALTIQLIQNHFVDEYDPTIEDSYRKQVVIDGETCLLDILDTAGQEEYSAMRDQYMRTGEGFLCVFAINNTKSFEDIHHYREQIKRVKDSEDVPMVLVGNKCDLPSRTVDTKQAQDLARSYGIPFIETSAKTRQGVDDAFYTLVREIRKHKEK
KRAS G12S, sequence (P62937 whole entry): as the sequence (P62937 whole entry, canonical isoform) above

Compound | pIC50 (K-Ras G13C) | pIC50 (KRAS G12V) | pIC50 (KRAS WT) | pIC50 (KRAS G12D) | pIC50 (KRAS G12S) | pEC50 ([1]; Homo sapiens, NCI-H358) | pIC50 (K-Ras G12C) | pIC50 (NCI-H358 (K-Ras G12C); Homo sapiens, NCI-H358, 120 h) | pEC50 [1] | pIC50 (NCI-H358 (K-Ras G12C))
C=CC(=O)N1CC[C@H](C(=O)N(C)[C@H](C(=O)N[C@H]2Cc3cc(O)cc(c3)-c3ccc4c(c3)c(c(-c3ccccc3CCN3CCCC3)n4CC)CC(C)(C)COC(=O)[C@@H]3CCCN(N3)C2=O)C(C)C)C1 [Example A100] | < 5.00 | < 5.00 | < 5.00 | < 5.00 | < 5.00 | > 5.30 | 5.00 to 6.00 | 6.00 to 7.00 |  | 
C=CC(=O)N1CC[C@]2(CCCN([C@H](C(=O)N[C@H]3Cc4cc(O)cc(c4)-c4ccc5c(c4)c(c(-c4ccccc4CCOC)n5CC)CC(C)(C)COC(=O)[C@@H]4CCCN(N4)C3=O)C(C)C)C2=O)C1 [Example A217] | 5.00 to 6.00 and < 5.00 | 5.00 to 6.00 and < 5.00 | 5.00 to 6.00 and < 5.00 | < 5.00 | 5.00 to 6.00 and < 5.00 | > 5.30 | 6.00 to 7.00 and < 5.00 |  |  | 
CCn1c(-c2cccnc2[C@H](C)OC)c2c3cc(ccc31)-c1cc(O)cc(c1)C[C@H](NC(=O)[C@H](C(C)C)N(C)C(=O)c1nc(NC(=O)/C=C/CN(C)C)cs1)C(=O)N1CCC[C@H](N1)C(=O)OCC(C)(C)C2 [Example A258] |  |  |  |  | 5.00 to 6.00 |  |  |  | > 5.30 | 6.00 to 7.00
C=CC(=O)N1CC[C@H](C(=O)N(C)[C@H](C(=O)NC2C[C@H]3CN(CCCO3)c3ccc4c(c3)c(c(-c3cccnc3[C@H](C)OC)n4CC)CC(C)(C)COC(=O)[C@@H]3CCCN(N3)C2=O)C(C)C)C1 (some centres unmarked) [Example A429] |  |  |  | < 5.00 | < 5.00 |  | < 5.00 |  |  | < 6.00

Continued, in another order:

pIC50 (K-Ras G13C) | pIC50 (KRAS G12V) | pIC50 (KRAS WT) | pIC50 (KRAS G12D) | pIC50 (KRAS G12S) | pEC50 ([1]; Homo sapiens, NCI-H358) | pIC50 (K-Ras G12C) | Compound | pIC50 (NCI-H358 (K-Ras G12C); Homo sapiens, NCI-H358, 120 h) | pEC50 [1] | pIC50 (NCI-H358 (K-Ras G12C))
< 5.00 | 5.00 to 6.00 and < 5.00 | < 5.00 | < 5.00 | 5.00 to 6.00 and < 5.00 | > 5.30 | 6.00 to 7.00 and < 5.00 | C=CC(=O)N1CC[C@H](C(=O)N(C)[C@H](C(=O)N[C@H]2Cc3cc(O)cc(c3)-c3ccc4c(c3)c(c(-c3ccccc3CCOC)n4CC)C[C@H](C)COC(=O)[C@@H]3CCCN(N3)C2=O)C(C)C)C1 [Example A215] |  |  | 
< 5.00 and 5.00 to 6.00 | 5.00 to 6.00 and < 5.00 | < 5.00 | < 5.00 | 5.00 to 6.00 and < 5.00 | > 5.30 | 6.00 to 7.00 and < 5.00 | CC#CC(=O)N1CC[C@H](C(=O)N(C)[C@H](C(=O)N[C@H]2Cc3cc(O)cc(c3)-c3ccc4c(c3)c(c(-c3ccccc3CCOC)n4CC)CC(C)(C)COC(=O)[C@@H]3CCCN(N3)C2=O)C(C)C)C1 [Example A221] |  |  | 
6.00 to 7.00 and < 5.00 | < 5.00 | 5.00 to 6.00 and < 5.00 | < 5.00 | < 5.00 | > 5.30 | 6.00 to 7.00 and 5.00 to 6.00 | C=CC(=O)N1CCC2(CC1)CCN([C@H](C(=O)N[C@H]1Cc3cc(O)cc(c3)-c3ccc4c(c3)c(c(-c3ccccc3CCOC)n4CC)CC(C)(C)COC(=O)[C@@H]3CCCN(N3)C1=O)C(C)C)C2=O [Example A222] |  |  | 
< 5.00 | 5.00 to 6.00 and < 5.00 | < 5.00 | < 5.00 | 5.00 to 6.00 and < 5.00 |  | 6.00 to 7.00 and < 5.00 | C=CC(=O)N1CC[C@H](C(=O)N(C)[C@H](C(=O)N[C@H]2Cc3cc(O)cc(c3)-c3ccc4c(c3)c(c(-c3ccc(OCC(=O)O)cc3)n4CC)CC(C)(C)COC(=O)[C@@H]3CCCN(N3)C2=O)C(C)C)C1 [Example A223] | < 6.00 |  | 
 |  |  | < 5.00 | < 5.00 |  | 5.00 to 6.00 | C=CC(=O)N1CC[C@H](C(=O)N(C)[C@H](C(=O)N[C@H]2Cc3cc(N)cc(c3)-c3ccc4c(c3)c(c(-c3ccccc3CCOC)n4CC)CC(C)(C)COC(=O)[C@@H]3CCCN(N3)C2=O)C(C)C)C1 [Examples A002] |  |  | 
